# Measured values as given in patent publication US8835501B2, “Pharmaceutical formulations of HDAC inhibitors” (TopoTarget UK Limited, priority 2005, dated 2014).
# Where “and” joins values, the source holds several entries; their conditions need not be identical. Equal entries are not always repeated. Where two headings read alike, the source gives them in different places.
# Key:
# [1] = Solubility enhancement with acidic and basic in situ salt formers (~[…])
# [2] = Solubility enhancement with cyclodextrins (saturated PXD-101 samples; HP-β-CD phase solubility); format: physicochemical; conditions: saturated PXD-101 in aqueous cyclodextrin 250 mg/mL (α-CD 100 mg/mL)
# Experimental: Saturated samples of PXD-101 were prepared in aqueous solutions of two natural cyclodextrins (α-CD and γ-CD) and hydroxypropyl derivatives of the α, β and γ cyclodextrins (HP-α-CD, HP-β-CD and HP-γ-CD). […] The calculated saturated solubilities of the complexed HDACi were plotted against the concentration of cyclodextrin. […] This type of phase solubility diagram for cyclodextrins is referred to as an A-Type phase solubility plot. […] This deviation may be due to experimental error caused by the decision to use of mass, instead of volume, to dispense the more concentrated cyclodextrin samples due to their viscosity. Alternatively, it is possible that there is a slight deviation from the linear A-Type phase solubility behaviour.
# [3] = pH solubility profile in buffered 25% w/v HP-β-CD; format: physicochemical
# From the text: It was noted that zwitterions can be self-buffering and this effect caused some instability in the buffering capacity of the buffer systems at high pH. Therefore, the required pH could only be achieved by adjusting the pH of the system by the addition of 1 M NaOH.
# [4] = Solubility of PXD-101 in demineralised water; format: physicochemical
# [5] = Solubility enhancement with cyclodextrin and in situ salt formers; format: physicochemical
# [6] = tested on: histone (H4 and/or H3) acetylation in peripheral blood mononuclear cells; assay: Pharmacodynamic analysis: histone acetylation in peripheral blood mononuclear cells; format: in vivo, human; conditions: intravenous administration
# From the text: Histones were isolated and probed with anti-acetylated histone (H4 and/or H3) antibody followed by HRP-secondary antibody.
# [7] = Plasma PK analysis after 30-min I.V. infusion in subjects with advanced cancer; format: in vivo, human
# Experimental: Plasma PK analysis was performed for subjects of all dose groups on days 1 and 5 of cycle 1 following 30 minutes of I.V. infusion.
# [8] = human, in vivo, iv
# [9] = Oral administration of PXD-101 (gelatin capsule) to subjects; format: in vivo, human
# From the text: Several subjects received PXD-101 in an oral formulation (e.g., PXD-101 in a gelatin capsule). […] Bioavailability for the oral formulation was approximately 33%.
# [10] = physchem; conditions: thermodynamic from solid, PXD-101 Concentration
# [11] = cited from earlier work
# [12] = Dilution experiments of saturated HDACi/salt former solutions; format: physicochemical; conditions: for appearance after dilution with pH 7.4 phosphate buffer: 0.47 M and 0.314 M saturated samples
# [13] = humans, given as a nutritional additive; cited from earlier work
# [14] = Phase solubility for arginine and meglumine
# [15] = PXD-101 in basic in situ salt former, […]
# [16] = 150 mg/m^2, 30-min I.V. infusion, cycle 1
# [17] = 300 mg/m^2, 30-min I.V. infusion, cycle 1
# [18] = 600 mg/m^2, 30-min I.V. infusion, cycle 1
# [19] = 900 mg/m^2, 30-min I.V. infusion, cycle 1
# [20] = 1200 mg/m^2, 30-min I.V. infusion, cycle 1
# [21] = PXD-101 in acidic in situ salt former, […]
compound,measurement,setting,value
NC(CO)(CO)CO [Tris],pH of Solution,[1]; [15],8.97
"OC[C@H]1O[C@@H]2O[C@H]3[C@H](O)[C@@H](O)[C@@H](O[C@H]4[C@H](O)[C@@H](O)[C@@H](O[C@H]5[C@H](O)[C@@H](O)[C@@H](O[C@H]6[C@H](O)[C@@H](O)[C@@H](O[C@H]7[C@H](O)[C@@H](O)[C@@H](O[C@H]1[C@H](O)[C@H]2O)O[C@@H]7CO)O[C@@H]6CO)O[C@@H]5CO)O[C@@H]4CO)O[C@@H]3CO [α-CD, α-cyclodextrin]",HDACi (PXD-101) Concentration,[2],0.65 mg/mL
"O=C(/C=C/c1cccc(S(=O)(=O)Nc2ccccc2)c1)NO [PXD-101, N-hydroxy-3-(3-phenylsulfamoyl-phenyl)-acrylamide]",PXD-101 Conc.,"[3]; pH adjusted with 1M NaOH, actual pH 8.91",36.0 mg/mL
same,PXD-101 Conc.,"[3]; target pH 4, actual pH 4.35",14.5 mg/mL
same,PXD-101 Conc.,"[3]; target pH 6, actual pH 5.99",17.3 mg/mL
same,PXD-101 Conc.,"[3]; target pH 7.4, actual pH 7.28",18.8 mg/mL
same,PXD-101 Conc.,"[3]; target pH 9.5, actual pH 8.09",19.4 mg/mL
same,solubility,[4],0.14 mg/mL
same,PXD-101 Concentration,[5]; 25% w/v HP-β-CD + arginine 0.157 M (27.4 mg/mL),39.2 mg/mL
same,PXD-101 Concentration,[5]; 25% w/v HP-β-CD + arginine 0.314 M (54.8 mg/mL),57.1 mg/mL and 57.0 mg/mL
same,PXD-101 Concentration,[5]; 25% w/v HP-β-CD + meglumine 0.157 M (30.7 mg/mL),43.0 mg/mL
same,PXD-101 Concentration,[5]; 25% w/v HP-β-CD + meglumine 0.314 M (61.4 mg/mL),62.5 mg/mL
same,enhancement of HDACi solubility,"[5]; using one or more of cyclodextrin, arginine, meglumine",~500 fold
same,time after administration at which increased acetylated histones could be detected,[6],up to 24 hours
same,AUC0-t/AUC0-∞,[7]; [16],99.0 ± 0.7%
same,AUCday 5/AUCday 1,[7]; [16],115 ± 22%
same,CLs,[7]; [16],122.6 ± 30.6 L/hr/m^2
same,Vd,[7]; [16],115.1 ± 43.5 L/m^2
same,AUC0-t/AUC0-∞,[7]; [17],99.7 ± 0.1%
same,AUCday 5/AUCday 1,[7]; [17],112 ± 21%
same,CLs,[7]; [17],94.6 ± 34.9 L/hr/m^2
same,Vd,[7]; [17],88.8 ± 31.8 L/m^2
same,AUC0-t/AUC0-∞,[7]; [18],99.9 ± 0.0%
same,AUCday 5/AUCday 1,[7]; [18],97%
same,CLs,[7]; [18],59.6 ± 16.0 L/hr/m^2
same,Cmax,[7]; [18],31177 ± 8968 ng/mL
same,Vd,[7]; [18],57.6 ± 13.9 L/m^2
same,AUC0-t/AUC0-∞,[7]; [19],99.8 ± 0.1%
same,CLs,[7]; [19],63.5 ± 16.4 L/hr/m^2
same,Vd,[7]; [19],48.8 ± 9.8 L/m^2
same,AUC0-t/AUC0-∞,[7]; [20],99.8 ± 0.1%
same,CLs,[7]; [20],66.6 ± 33.5 L/hr/m^2
same,Vd,[7]; [20],90.2 ± 87.3 L/m^2
same,accumulation on repeated dosing,[7]; I.V. days 1 to 5,no HDACi accumulation
same,dose dependence of plasma levels and AUC,"[7]; I.V., 150-1200 mg/m^2",dose proportional
same,AUC(0-t),"[7]; human, plasma, iv, 150 mg/m^2, 30-min I.V. infusion, cycle 1",1270 ± 272 ng·h/mL
same,Cmax,"[7]; human, plasma, iv, 150 mg/m^2, 30-min I.V. infusion, cycle 1, read-out: Cmax",6560 ± 2160 ng/mL
same,half-life,"[7]; human, plasma, iv, 150 mg/m^2, 30-min I.V. infusion, cycle 1, read-out: t1/2",46.6 ± 8.7 min
same,AUC(0-t),"[7]; human, plasma, iv, 300 mg/m^2, 30-min I.V. infusion, cycle 1",3500 ± 1100 ng·h/mL
same,Cmax,"[7]; human, plasma, iv, 300 mg/m^2, 30-min I.V. infusion, cycle 1, read-out: Cmax",15500 ± 6240 ng/mL
same,half-life,"[7]; human, plasma, iv, 300 mg/m^2, 30-min I.V. infusion, cycle 1, read-out: t1/2",44.6 ± 8 min
same,AUC(0-t),"[7]; human, plasma, iv, 600 mg/m^2, 30-min I.V. infusion, cycle 1",10700 ± 3010 ng·h/mL
same,half-life,"[7]; human, plasma, iv, 600 mg/m^2, 30-min I.V. infusion, cycle 1, read-out: t1/2",43.4 ± 6.7 min
same,AUC(0-t),"[7]; human, plasma, iv, 900 mg/m^2, 30-min I.V. infusion, cycle 1",14700 ± 3410 ng·h/mL
same,Cmax,"[7]; human, plasma, iv, 900 mg/m^2, 30-min I.V. infusion, cycle 1, read-out: Cmax",53800 ± 6380 ng/mL
same,half-life,"[7]; human, plasma, iv, 900 mg/m^2, 30-min I.V. infusion, cycle 1, read-out: t1/2",54.2 ± 8.7 min
same,AUC(0-t),"[7]; human, plasma, iv, 1200 mg/m^2, 30-min I.V. infusion, cycle 1",22000 ± 11000 ng·h/mL
same,Cmax,"[7]; human, plasma, iv, 1200 mg/m^2, 30-min I.V. infusion, cycle 1, read-out: Cmax",52400 ± 12700 ng/mL
same,half-life,"[7]; human, plasma, iv, 1200 mg/m^2, 30-min I.V. infusion, cycle 1, read-out: t1/2",85.5 ± 19.6 min
same,half-life,"[7]; human, plasma, iv, I.V., across dose levels 150-1200 mg/m^2, read-out: elimination half-life",47 to 86 min
same,laboratory tests / hematological toxicity,[8],no hematological toxicity was identified
same,main HDACi-related adverse events,[8],"fatigue, nausea, vomiting (infusion-related), and phlebitis"
same,other adverse events,[8],"headache, diarrhea, constipation, and dyspnea"
same,"plasma levels, oral versus intravenous","[9]; 900 and 1200 mg/m^2, FIG. 12",remain higher when dosed orally
same,bioavailability,"[9]; human, plasma, oral formulation (gelatin capsule)",~33%
same,tolerability,"[9]; oral dosing, preliminary data",good tolerability
same,solubility thermodynamic,"[10]; pH 9.07, aqueous with cosolvent or surfactant or cyclodextrin",13.5 mg/mL
same,solubility thermodynamic,"[10]; pH 9.1, aqueous with cosolvent or surfactant or cyclodextrin",7.9 mg/mL
same,solubility thermodynamic,"[10]; pH 9.19, aqueous with cosolvent or surfactant or cyclodextrin",31.1 mg/mL
same,solubility thermodynamic,"[10]; pH 9.2, aqueous with cosolvent or surfactant or cyclodextrin",21.2 mg/mL
same,solubility thermodynamic,"[10]; pH 9.33, aqueous with cosolvent or surfactant or cyclodextrin",39.1 mg/mL
same,solubility thermodynamic,"[10]; pH 9.4, aqueous with cosolvent or surfactant or cyclodextrin",57.3 mg/mL
"N=C(N)NCCC[C@H](N)C(=O)O [Arginine, (S)-2-amino-5-[(aminoiminomethyl)-amino]pentanoic acid]",content of saturated aqueous solution,"[11]; water, 21° C.",15 % w/w
same,appearance after dilution with pH 7.4 phosphate buffer,[12],initially clear solutions but some crystallisation
same,well tolerated dose,[13],up to 30 g/kg
O=C(O)/C=C\C(=O)O [Maleic Acid],pH of Solution,[1]; [21],1.65
NCCN [Ethylenediamine],dilution of saturated HDACi solution to infusion concentration of […],[12]; basic salt former solutions diluted with 5% w/v glucose and 0.9% w/v saline,incompatibility
OCCNCCO [Diethanolamine],pH of Solution,[1]; [15],9.13
O=C(O)CC(O)C(=O)O (centres unmarked) [Malic Acid],pH of Solution,[1]; [21],2.19
same,S/D Molar ratio (salt former-to-HDACi),"[1]; acidic in situ salt former, […]",309
O=C(O)[C@H](O)[C@@H](O)[C@H](O[C@@H]1O[C@H](CO)[C@H](O)[C@H](O)[C@H]1O)[C@H](O)CO [Lactobionic Acid],pH of Solution,[1]; [21],2.43
"CNC[C@H](O)[C@@H](O)[C@H](O)[C@H](O)CO [Meglumine, 1-deoxy-1-(methylamino)-D-glucitol]",pH of saturated HDACi solution,"[14]; basic salt ×1, 0.157 M",9.20
same,pH of saturated HDACi solution,"[14]; basic salt ×2, 0.314 M",9.33
same,pH of saturated HDACi solution,"[14]; basic salt ×3, 0.47 M",9.40
same,Predicted Salt Former Conc. to achieve target PXD-101 Conc.,[14]; target PXD-101 50 mg/mL,79.2 mg/mL
same,Predicted Salt Former Conc. to achieve target PXD-101 Conc.,[14]; target PXD-101 70 mg/mL,126.9 mg/mL
same,Predicted Salt Former Conc. to achieve target PXD-101 Conc.,[14]; target PXD-101 100 mg/mL,158.3 mg/mL
same,solubility in water,[11]; 25° C.,~100 g in 100 mL
same,appearance after dilution with pH 7.4 phosphate buffer,[12],turbid solutions
NCCCC[C@H](N)C(=O)O [Lysine],pH of Solution,[1],9.11
